US20230382871A1, “CSF1R KINASE INHIBITOR AND USE THEREOF” (SHANGHAI INSTITUTE OF MATERIA MEDICA, CHINESE ACADEMY OF …, priority 2020, published 2023)
pIC50: −log10 of the molar value.

How the values were obtained:
[1] = tested on: human colorectal cancer HT-29 subcutaneous xenografts; experiment: Human colorectal cancer HT-29 subcutaneous xenografts in nude mice; assay type: in vivo, BALB/c nude mice; settings: for Body Weight (g) D 21 / RTV (mean ± SD) / TV (mm3, mean ± SD) D 21: D 21; for T/C (%): Day 21
Excerpt: BALB/c female nude mice of 6 weeks old were used, and were provided by Shanghai Lingchang Biotechnology Co., Ltd.
Human colorectal cancer HT-29 cells were subcutaneously inoculated into the right axillary fossa of a nude mouse (5×10^6 cells/mouse). After a xenograft was formed, the tumor was transferred to a nude mouse for 1 passage.
Tumor tissues at the vigorous growth stage were removed and cut into pieces of approximately 1.5 mm^3. The tumor fragments were inoculated subcutaneously into the right axillary fossa of nude mice under aseptic conditions. The diameters of the subcutaneous xenografts in nude mice were measured with a vernier caliper. The animals were randomly grouped after the xenografts reached an average volume of about 120 mm^3. Compound I was administered orally at doses of 20 mg/kg, 10 mg/kg and 5 mg/kg twice a day for 21 consecutive days. An equal volume of a blank preparation was administered orally twice a day for 21 consecutive days. The positive control drug Axitinib was administered orally at a dose of 40 mg/kg group twice a day for 21 consecutive days. An equal volume of water for injection was administered to the animals in the solvent group. Throughout the experiment, the diameters of the xenografts were measured twice a week and the mice were weighed at the same time. The tumor volume (TV) was calculated as TV=½×a×b^2, where “a” and “b” denote the length and width of a tumor, respectively. The relative tumor volume (RTV) was calculated from the measurement results with the calculation formula RTV=Vt/V0, in which V0 is the tumor volume measured upon administration after grouping (i.e., D0) and Vt is the tumor volume from each measurement. The evaluation index of anti-tumor activity is the relative tumor proliferation rate T/C (%), which is calculated as T/C (%)=(TRTV/CRTV)×100%, in which TRTV denotes the RTV from the treatment group and CRTV denotes the RTV from solvent group.

[2] = tested on: BMDM cells; experiment: CCK8 cell proliferation inhibition assay on CSF1-stimulated bone marrow-derived macrophages; assay type: cell-based, mice (BALB/c); settings: Mus musculus, 72 h exposure
Protocol: Mice (BALB/c) were subjected to euthanasia and then immersed in 75% alcohol for 3-5 min. The tibias and femurs of the mice were removed with ophthalmic forceps and ophthalmic clips on an ultraclean table. The tibial and femoral joints were cut off and bone marrow cells were washed out with a sterile buffer. Bone marrow cells were filtered with a 70 µm nylon membrane. The filtrate was centrifuged and the supernatant was discarded. An erythrocyte lysate was added to the pellets, which were allowed to incubate for 3-4 min. Then, a sterile buffer was added to stop the lysis reaction. The reactant was centrifuged and the supernatant was discarded, thereby yielding bone marrow cell pellets. The cells were cultured in 1640 medium (supplemented with FBS and 10 ng/mL of CSF1) for 5 to 7 days and identified as macrophages by flow cytometry. CCK8 cell counting kits were used in this assay. Bone marrow-derived macrophages, after induction by CSF1 for 5 to 7 days, were seeded into 96-well culture plates and allowed to incubate overnight. Then, the cells were exposed to compounds at various concentrations for 72 h. A blank control group was set. 10 μL of CCK8 reagent was added to each well and the places were placed in an incubator for 4 to 12 h. The plates were read with a microplate reader at a wavelength of 450 nm. […] Each experiment was independently repeated for three times.

[3] = tested on: macrophage marker F4/80 in HT-29 tumor tissues; experiment: Immunohistochemistry of macrophage marker F4/80 in HT-29 tumor tissues; assay type: in vivo, nude mice; settings: Compound I 5, 10, 20 mg/kg; Axitinib 40 mg/kg
Protocol: At the end of the in vivo experiments, U87MG and HT-29 xenografts in nude mice were removed and fixed with […] to prepare paraffin sections. Expression of individual proteins was assessed using multiplicative quick score method (MQS). This evaluation method takes into account both the staining intensity and the staining range. […] The average intensity score of positive stained cells was 0 to 3 (0=no staining; 1=weak staining; 2=moderate staining; 3=strong staining). The total score a (minimum 0 and maximum 18) is then calculated by multiplying the range score by the intensity score.

[4] = tested on: M2-type macrophage marker CD206 in U87MG tumor tissues; experiment: Immunohistochemistry of M2-type macrophage marker CD206 in U87MG tumor tissues; assay type: in vivo, nude mice
Protocol: At the end of the in vivo experiments, U87MG and HT-29 xenografts in nude mice were removed and fixed with […] to prepare paraffin sections.
Expression of individual proteins was assessed using multiplicative quick score method (MQS). This evaluation method takes into account both the staining intensity and the staining range. The method estimates the proportion of positive cells and gives a range score from 1 to 6 (1=1%-4%; 2=5%-19%; 3=20%-39%; 4=40%-59%; 5=60%-79%; 6=80%-100%). The average intensity score of positive stained cells was 0 to 3 (0=no staining; 1=weak staining; 2=moderate staining; 3=strong staining). The total score a (minimum 0 and maximum 18) is then calculated by multiplying the range score by the intensity score.
For detecting the changes in the macrophage marker F4/80 and M2-type macrophage marker CD206 in the U87MG tumor tissues, quantitative analysis (solvent: n=6, blank preparation: n=6, Compound I (10 mg/kg): n=6, Compound I (20 mg/kg): n=6, Compound I (40 mg/kg): n=6, Axitinib: n=4) was performed on all sections and the experimental data were analyzed for significant differences using the t-test. * denotes p<0.05 as compared with the blank preparation group, ** denotes p<0.01 as compared with the blank preparation group, and denotes p<0.001 as compared with the blank preparation group.

Cc1cc(NC(=O)c2cccc3cc(-c4cccc5[nH]nc(N)c45)ccc23)ccc1F [Compound I]
Body Weight (g) D 0 ([1]; 5 mg/kg bid × 21 po): 19.7 g
TV (mm3, mean ± SD) D 0 ([1]; 5 mg/kg bid × 21 po): 113 ± 28 mm3
Body Weight (g) D 21 ([1]; 5 mg/kg bid × 21 po): 18.6 g
RTV (mean ± SD) ([1]; 5 mg/kg bid × 21 po): 3.76 ± 0.87
TV (mm3, mean ± SD) D 21 ([1]; 5 mg/kg bid × 21 po): 427 ± 157 mm3
T/C (%) ([1]; 5 mg/kg bid × 21 po): 42.70%
Body Weight (g) D 0 ([1]; 10 mg/kg bid × 21 po): 19.8 g
TV (mm3, mean ± SD) D 0 ([1]; 10 mg/kg bid × 21 po): 120 ± 33 mm3
Body Weight (g) D 21 ([1]; 10 mg/kg bid × 21 po): 18.1 g
RTV (mean ± SD) ([1]; 10 mg/kg bid × 21 po): 2.75 ± 1.04
TV (mm3, mean ± SD) D 21 ([1]; 10 mg/kg bid × 21 po): 336 ± 173 mm3
T/C (%) ([1]; 10 mg/kg bid × 21 po): 31.27%
Body Weight (g) D 0 ([1]; 20 mg/kg bid × 21 po): 20.1 g
TV (mm3, mean ± SD) D 0 ([1]; 20 mg/kg bid × 21 po): 121 ± 35 mm3
Body Weight (g) D 21 ([1]; 20 mg/kg bid × 21 po): 18.2 g
RTV (mean ± SD) ([1]; 20 mg/kg bid × 21 po): 1.53 ± 0.25
TV (mm3, mean ± SD) D 21 ([1]; 20 mg/kg bid × 21 po): 188 ± 69 mm3
T/C (%) ([1]; 20 mg/kg bid × 21 po): 17.38%
pIC50 [2]: 7.03
expression of F4/80, HT-29 tumor tissue [3]: inhibited the expression of F4/80 and CD206 in a dose-dependent manner
inhibition rate of CD206 expression, U87MG tumor tissue ([4]; 10 mg/kg dose group): 34.48%
inhibition rate of CD206 expression, U87MG tumor tissue ([4]; 40 mg/kg dose group): 70.69%
